# Target: T1, F508del (Homo sapiens, UniProt P13569, DEL508-508)
# T1 construct: expressed in transfected cells
# Test: Protocol 2: FRET membrane potential optical assay (VIPR), identification of correction compounds
# Type: cell-based
# Settings: F508del CFTR modulator activity; compounds of Table 1; read-out: EC30
# In short: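 Single-addition HTS format: F508del-expressing NIH3T3 cells pre-incubated 16 hrs at 37° C. ± compound, with 27° C. culture as positive control. Channel activation by forskolin 10 μM and genistein 20 μM upon switch to gluconate bath, pH 7.4; read-out is FRET-based depolarization signal.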
# T1 sequence (P13569 with tags, fused parts or gaps DEL508-508): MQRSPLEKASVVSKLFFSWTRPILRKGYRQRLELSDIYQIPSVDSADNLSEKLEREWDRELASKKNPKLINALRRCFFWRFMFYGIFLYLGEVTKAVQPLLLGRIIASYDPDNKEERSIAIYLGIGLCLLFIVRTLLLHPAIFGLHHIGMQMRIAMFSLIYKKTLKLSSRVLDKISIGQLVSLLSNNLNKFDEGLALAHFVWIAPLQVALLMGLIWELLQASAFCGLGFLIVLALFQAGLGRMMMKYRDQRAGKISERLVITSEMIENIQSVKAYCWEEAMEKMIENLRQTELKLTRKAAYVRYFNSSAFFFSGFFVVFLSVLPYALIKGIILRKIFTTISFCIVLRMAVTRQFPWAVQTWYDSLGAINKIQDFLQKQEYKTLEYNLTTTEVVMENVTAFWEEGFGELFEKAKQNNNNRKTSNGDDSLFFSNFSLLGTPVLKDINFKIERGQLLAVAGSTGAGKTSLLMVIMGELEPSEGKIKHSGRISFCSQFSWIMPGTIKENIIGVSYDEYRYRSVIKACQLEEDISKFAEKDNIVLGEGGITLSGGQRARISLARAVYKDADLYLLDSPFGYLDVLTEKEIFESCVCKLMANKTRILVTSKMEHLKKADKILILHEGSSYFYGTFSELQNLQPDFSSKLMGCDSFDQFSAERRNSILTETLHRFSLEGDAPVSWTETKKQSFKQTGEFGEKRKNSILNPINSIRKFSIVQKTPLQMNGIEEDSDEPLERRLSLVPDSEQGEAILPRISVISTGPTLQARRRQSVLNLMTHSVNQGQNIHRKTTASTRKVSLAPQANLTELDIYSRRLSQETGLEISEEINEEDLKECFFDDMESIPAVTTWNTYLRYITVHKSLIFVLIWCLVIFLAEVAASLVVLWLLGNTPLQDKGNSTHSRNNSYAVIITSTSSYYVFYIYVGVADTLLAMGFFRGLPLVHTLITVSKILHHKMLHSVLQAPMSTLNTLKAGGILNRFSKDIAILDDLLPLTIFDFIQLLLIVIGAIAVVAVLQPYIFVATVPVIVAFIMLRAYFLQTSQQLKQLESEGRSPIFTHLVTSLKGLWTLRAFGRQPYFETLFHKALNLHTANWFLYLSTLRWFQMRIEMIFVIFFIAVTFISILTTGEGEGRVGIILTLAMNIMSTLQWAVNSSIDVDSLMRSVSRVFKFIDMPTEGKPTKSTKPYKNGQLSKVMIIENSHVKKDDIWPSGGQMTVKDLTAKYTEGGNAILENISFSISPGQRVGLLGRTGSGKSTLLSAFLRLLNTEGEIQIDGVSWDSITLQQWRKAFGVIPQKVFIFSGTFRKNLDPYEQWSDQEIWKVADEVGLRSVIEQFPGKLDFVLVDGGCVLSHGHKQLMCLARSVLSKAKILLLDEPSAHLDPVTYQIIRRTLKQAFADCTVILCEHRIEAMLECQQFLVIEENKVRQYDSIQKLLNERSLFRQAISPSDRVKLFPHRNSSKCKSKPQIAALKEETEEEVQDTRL
row,SMILES,EC30
1,"C[C@@H]1CN(c2nc(C3=CCCN(C(=O)NC(C)(C)C)C3)ccc2C(=O)NS(=O)(=O)c2cccc(N)n2)C(C)(C)C1 [Compound 2568, N-[(6-amino-2-pyridyl)sulfonyl]-6-[1-(tert-butylcarbamoyl)-3,6-dihydro-2H-pyridin-5-yl]-2-[(4S)-2,2,4-trimethylpyrrolidin-1-yl]pyridine-3-carboxamide]",3000 to 10000 nM
2,"CC(=O)c1cccc(Oc2cccc(S(=O)(=O)NC(=O)c3cccnc3N3CC(C)CC3(C)C)n2)c1 (stereo not drawn) [Compound 2569, N—[[6-(3-acetylphenoxy)-2-pyridyl]sulfonyl]-2-(2,2,4-trimethylpyrrolidin-1-yl)pyridine-3-carboxamide]",< 3000 nM
3,"CCOc1cccc(-c2ccc(C(=O)NS(=O)(=O)N3CC[C@H](N)C3)c(N3C[C@@H](C)CC3(C)C)n2)c1 [Compound 2570, N-[(3S)-3-aminopyrrolidin-1-yl]sulfonyl-6-(3-ethoxyphenyl)-2-[(4S)-2,2,4-trimethylpyrrolidin-1-yl]pyridine-3-carboxamide]",3000 to 10000 nM
4,"COc1ccc(Nc2cccc(S(=O)(=O)NC(=O)c3cccnc3N3CC(C)CC3(C)C)n2)cc1Cl (stereo not drawn) [Compound 2571, N—[[6-(3-chloro-4-methoxy-anilino)-2-pyridyl]sulfonyl]-2-(2,24-trimethylpyrrolidin-1-yl)pyridine-3-carboxamide]",< 3000 nM
5,"Cc1cccc(Nc2cccc(S(=O)(=O)NC(=O)c3cccnc3N3CC(C)CC3(C)C)n2)c1 (stereo not drawn) [Compound 2572, N—[[6-(3-methylanilino)-2-pyridyl]sulfonyl]-2-(2,2,4-trimethylpyrrolidin-1-yl)pyridine-3-carboxamide]",< 3000 nM
6,CC(C)COc1cc(F)cc(-c2ccc(C(=O)NS(=O)(=O)c3cccc(N)n3)c(N3CC(C(F)(F)F)CC3(C)C)n2)c1 (stereo not drawn) [Compound 2573],< 3000 nM
7,"CC1CN(c2ncccc2C(=O)NS(=O)(=O)c2cccc(NC3CC3)n2)C(C)(C)C1 (stereo not drawn) [Compound 2574, N—[[6-(cyclopropylamino)-2-pyridyl]sulfonyl]-2-(2,2,4-trimethylpyrrolidin-1-yl)pyridine-3-carboxamide]",3000 to 10000 nM
8,"COc1cc(C)c(-c2ccc(C(=O)NS(=O)(=O)c3ccc[nH]c3=O)c(N3C[C@@H](C)CC3(C)C)n2)c(C)c1 [Compound 2575, 6-(4-methoxy-2,6-dimethyl-phenyl)-N-[(2-oxo-1H-pyridin-3-yl)sulfonyl]-2-[(4S)-2,2,4-trimethylpyrrolidin-1-yl]pyridine-3-carboxamide]",< 3000 nM
9,"CC[C@@H](C)Oc1ncc(-c2ccc(C(=O)NS(=O)(=O)c3cccc(N)n3)c(N3C[C@@H](C)CC3(C)C)n2)cc1C [Compound 2576, N-[(6-amino-2-pyridyl)sulfonyl]-6-[5-methyl-6-[(1R)-1-methylpropoxy]-3-pyridyl]-2-[(4S)-2,2,4-trimethylpyrrolidin-1-yl]pyridine-3-carboxamide]",< 3000 nM
10,"C[C@@H]1CN(c2nc(-n3ccc(OCC(C)(C)C)n3)ccc2C(=O)NS(=O)(=O)c2ccc[nH]c2=O)C(C)(C)C1 [Compound 2578, 6-[3-(2,2-dimethylpropoxy)pyrazol-1-yl]-N-[(2-oxo-1H-pyridin-3-yl)sulfonyl]-2-[(4S)-2,2,4-trimethylpyrrolidin-1-yl]pyridine-3-carboxamide]",< 3000 nM
11,"COc1ccc(CNc2cccc(S(=O)(=O)NC(=O)c3cccnc3N3CC(C)CC3(C)C)n2)cc1 (stereo not drawn) [Compound 2579, N—[[6-[(4-methoxyphenyl)methylamino]-2-pyridyl]sulfonyl]-2-(2,2,4-trimethylpyrrolidin-1-yl)pyridine-3-carboxamide]",< 3000 nM
12,"CC1CN(c2ncccc2C(=O)NS(=O)(=O)c2cccc(N3Cc4ccc(F)cc4C3)n2)C(C)(C)C1 (stereo not drawn) [Compound 2580, N—[[6-(5-fluoroisoindolin-2-yl)-2-pyridyl]sulfonyl]-2-(2,2,4-trimethylpyrrolidin-1-yl)pyridine-3-carboxamide]",< 3000 nM
13,"CC(C)COc1cc(F)cc(-c2ccc(C(=O)NS(=O)(=O)c3cccc(N)n3)c(N3CCC(C)CC3(C)C)n2)c1 (stereo not drawn) [Compound 2581, N-[(6-amino-2-pyridyl)sulfonyl]-6-(3-fluoro-5-isobutoxy-phenyl)-2-(2,2,4-trimethyl-1-piperidyl)pyridine-3-carboxamide]",< 3000 nM
14,"COCCOc1ncc(-c2ccc(C(=O)NS(=O)(=O)c3cccc(N)n3)c(N3C[C@@H](C)CC3(C)C)n2)cc1C [Compound 2582, N-[(6-amino-2-pyridyl)sulfonyl]-6-[6-(2-methoxyethoxy)-5-methyl-3-pyridyl]-2-[(4S)-2,2,4-trimethylpyrrolidin-1-yl]pyridine-3-carboxamide]",< 3000 nM
15,"C[C@@H]1CN(c2nc(-c3cccc4c3OCC4)ccc2C(=O)NS(=O)(=O)c2ccc[nH]c2=O)C(C)(C)C1 [Compound 2583, 6-(2,3-dihydrobenzofuran-7-yl)-N-[(2-oxo-1H-pyridin-3-yl)sulfonyl]-2-[(4S)-2,2,4-trimethylpyrrolidin-1-yl]pyridine-3-carboxamide]",3000 to 10000 nM
16,"CC1CN(c2ncc(-c3ccccc3C#N)cc2C(=O)NS(=O)(=O)c2cccc(N)n2)C(C)(C)C1 (stereo not drawn) [Compound 2584, N-[(6-amino-2-pyridyl)sulfonyl]-5-(2-cyanophenyl)-2-(2,2,4-trimethylpyrrolidin-1-yl)pyridine-3-carboxamide]",3000 to 10000 nM
17,"CC1CN(c2ncccc2C(=O)NS(=O)(=O)c2cccc(OCc3ccc(Cl)cc3)n2)C(C)(C)C1 (stereo not drawn) [Compound 2585, N—[[6-[(4-chlorophenyl)methoxy]-2-pyridyl]sulfonyl]-2-(2,2,4-trimethylpyrrolidin-1-yl)pyridine-3-carboxamide]",< 3000 nM
18,"CC(C)COc1cc(F)cc(-c2ccc(C(=O)NS(=O)(=O)c3cccc(N)n3)c(N3CC4(CCC4)CC3(C)C)n2)c1 [Compound 2589, N-[(6-amino-2-pyridyl)sulfonyl]-2-(6,6-dimethyl-7-azaspiro[3.4]octan-7-yl)-6-(3-fluoro-5-isobutoxy-phenyl)pyridine-3-carboxamide]",< 3000 nM

# Second part, the molecule after the results:
row,EC30,SMILES
1,3000 to 10000 nM,"C[C@@H]1CN(c2nc(N3CCOC(C)(C)C3)c(F)cc2C(=O)NS(=O)(=O)c2cccc(N)n2)C(C)(C)C1 [Compound 2586, N-[(6-amino-2-pyridyl)sulfonyl]-6-(2,2-dimethylmorpholin-4-yl)-5-fluoro-2-[(4S)-2,2,4-trimethylpyrrolidin-1-yl]pyridine-3-carboxamide]"
2,3000 to 10000 nM,"Cc1ccc(-c2ccc(C(=O)NS(=O)(=O)N3CC[C@H](N)C3)c(N3C[C@@H](C)CC3(C)C)n2)cc1F [Compound 2587, N-[(3S)-3-aminopyrrolidin-1-yl]sulfonyl-6-(3-fluoro-4-methyl-phenyl)-2-[(4S)-2,2,4-trimethylpyrrolidin-1-yl]pyridine-3-carboxamide]"
3,< 3000 nM,"Cc1ccc(OCc2ccccc2)cc1-c1cnc(N2CC(C)CC2(C)C)c(C(=O)NS(=O)(=O)c2cccc(N)n2)c1 (stereo not drawn) [Compound 2588, N-[(6-amino-2-pyridyl)sulfonyl]-5-(5-benzyloxy-2-methyl-phenyl)-2-(2,2,4-trimethylpyrrolidin-1-yl)pyridine-3-carboxamide]"
4,< 3000 nM,"C[C@@H]1CN(c2nc(-c3ccc(CO)cc3)ccc2C(=O)NS(=O)(=O)c2cccnc2N)C(C)(C)C1 [Compound 2590, N-[(2-amino-3-pyridyl)sulfonyl]-6-[4-(hydroxymethyl)phenyl]-2-[(4S)-2,2,4-trimethylpyrrolidin-1-yl]pyridine-3-carboxamide]"
5,< 3000 nM,"CC1CN(c2ncccc2C(=O)NS(=O)(=O)c2cccc(Oc3cc(F)ccc3Cl)n2)C(C)(C)C1 (stereo not drawn) [Compound 2591, N—[[6-(2-chloro-5-fluoro-phenoxy)-2-pyridyl]sulfonyl]-2-(2,2,4-trimethylpyrrolidin-1-yl)pyridine-3-carboxamide]"
6,< 3000 nM,"Cc1cccc(-c2ccc(C(=O)NS(=O)(=O)c3cccnc3N)c(N3C[C@@H](C)CC3(C)C)n2)c1O [Compound 2592, N-[(2-amino-3-pyridyl)sulfonyl]-6-(2-hydroxy-3-methyl-phenyl)-2-[(4S)-2,2,4-trimethylpyrrolidin-1-yl]pyridine-3-carboxamide]"
7,< 3000 nM,"C[C@@H]1CN(c2nc(-c3cccc(C(F)(F)F)c3)ccc2C(=O)NS(=O)(=O)c2cccnc2N)C(C)(C)C1 [Compound 2593, N-[(2-amino-3-pyridyl)sulfonyl]-6-[3-(trifluoromethyl)phenyl]-2-[(4S)-2,2,4-trimethylpyrrolidin-1-yl]pyridine-3-carboxamide]"
8,< 3000 nM,"CC1CN(c2ncccc2C(=O)NS(=O)(=O)c2cccc(OCC3COc4ccccc4C3)n2)C(C)(C)C1 (stereo not drawn) [Compound 2595, N—[[6-(chroman-3-ylmethoxy)-2-pyridyl]sulfonyl]-2-(2,2,4-trimethylpyrrolidin-1-yl)pyridine-3-carboxamide]"
9,< 3000 nM,"C[C@@H]1CN(c2nc(C(C)(C)C)c(C3=CCN(C(=O)CC4CCCCC4)CC3)cc2C(=O)NS(=O)(=O)c2cccc(N)n2)C(C)(C)C1 [Compound 2596, N-[(6-amino-2-pyridyl)sulfonyl]-6-tert-butyl-5-[1-(2-cyclohexylacetyl)-3,6-dihydro-2H-pyridin-4-yl]-2-[(4S)-2,2,4-trimethylpyrrolidin-1-yl]pyridine-3-carboxamide]"
10,3000 to 10000 nM,"CC1CN(c2ncccc2C(=O)NS(=O)(=O)c2cccc(NCc3ccco3)n2)C(C)(C)C1 (stereo not drawn) [Compound 2597, N—[[6-(2-furylmethylamino)-2-pyridyl]sulfonyl]-2-(2,2,4-trimethylpyrrolidin-1-yl)pyridine-3-carboxamide]"
11,< 3000 nM,"CC1CN(c2ncccc2C(=O)NS(=O)(=O)c2cccc(Oc3cc(Cl)ccc3F)n2)C(C)(C)C1 (stereo not drawn) [Compound 2598, N—[[6-(5-chloro-2-fluoro-phenoxy)-2-pyridyl]sulfonyl]-2-(2,2,4-trimethylpyrrolidin-1-yl)pyridine-3-carboxamide]"
12,3000 to 10000 nM,"Nc1cccc(S(=O)(=O)NC(=O)c2cccnc2NC2CCCCC2C2CCCCC2)n1 (stereo not drawn) [Compound 2599, N-[(6-amino-2-pyridyl)sulfonyl]-2-[(2-cyclohexylcyclohexyl)amino]pyridine-3-carboxamide]"

# Source: patent US10758534B2 (Vertex Pharmaceuticals Incorporated, priority 2014, dated 2020)
